# Source: patent publication US11596644B2, “Method for treating post-prandial hypoglycemia” (AVOLYNT, priority 2018, dated 2023)
# How the values were obtained:
# [1] = tested on: STZ-induced diabetic rats; assay: Oral mixed-carbohydrate tolerance test (OMCTT) in STZ-induced diabetic rats (Example 9); assay type: in vivo, rat; conditions: for Plasma glucose 0 hr: before dosing; for Plasma glucose 0 hr / Plasma glucose 0.5 hr / Plasma glucose 1 hr / Plasma glucose 2 hr / Plasma glucose 3 hr / ΔAUC (0-1) / ΔAUC (0-1) (% of Control): mixed-carbohydrate load, mean ± S.E.M.
# Description: Study in diabetic rats with mixed carbohydrates. Diabetic rats, induced by intravenous injection of streptozotocin (STZ; 40 mg/kg), were used to determining plasma glucose concentration (PG) 1 hr after oral mixed-carbohydrate tolerance test (OMCTT). […] Blood was collected via the caudal artery immediately before dosing and 0.5, 1, 2, and 3 hr after dosing. The glucose concentration measurement in plasma used Glucose CII-Test Wako kit (Wako Pure Chemicals Industries, Ltd., Osaka, Japan). The variables used for efficacy assessment were the measurement values of the plasma glucose concentration and the area under the curve for plasma glucose concentration through 1 hr after loading (ΔAUC0-1 hr). The ΔAUC0-1 hr for plasma glucose was calculated based on the trapezoid method using the change of plasma glucose concentrations from pre-value (0 hr).
# [2] = tested on: STZ-induced diabetic rats; assay: Mixed carbohydrate tolerance test in STZ-induced diabetic rats (Example 3); assay type: in vivo, rat
# Description: Study in diabetic rats. Mizagliflozin was tested in a rat model for diabetes and efficacy, as measured by a relative decrease in plasma glucose, was determined using a mixed carbohydrate tolerance test. Diabetic model rats were prepared by intravenous administration of streptozotocin (STZ) to induce diabetes. Seven days after STZ administration, rats were fasted for 16 hours and then given an oral loading dose of 2.0 g/kg of mixed carbohydrate (soluble starch:sucrose:lactose monohydrate=6:3:1). Mizagliflozin, or water as the vehicle control, was then administered as a single oral dose to groups of male rats (n=8/group) at doses of 0.01, 0.03, 0.1, and 0.3 mg/kg. Another control group was given vehicle and consisted of normal male Sprague Dawley rats that were not administered STZ. Voglibose was also administered as a single oral dose to male rats (n=8/group) at dose levels of 0.03, 0.1 and 0.3 mg/kg. Blood samples were collected just prior to loading with mixed carbohydrate and at 0.5, 1, 2, 3, 4, and 6 hours after loading. Plasma glucose concentrations were determined and ΔAUC0-1 h for plasma glucose was calculated.
# rat SGLT2 = target: T1, rat SGLT2 (Rattus norvegicus, UniProt P53792); assay: Inhibition of radiolabeled α-MG uptake into COS-7 cells transfected with rat SGLT2 (Dixon plot); assay type: cell-based; conditions: α-MG 0.3 and 1 mM
# T1 construct: expressed in transfected cells; host or cells: COS-7
# T1 sequence (P53792 1-670): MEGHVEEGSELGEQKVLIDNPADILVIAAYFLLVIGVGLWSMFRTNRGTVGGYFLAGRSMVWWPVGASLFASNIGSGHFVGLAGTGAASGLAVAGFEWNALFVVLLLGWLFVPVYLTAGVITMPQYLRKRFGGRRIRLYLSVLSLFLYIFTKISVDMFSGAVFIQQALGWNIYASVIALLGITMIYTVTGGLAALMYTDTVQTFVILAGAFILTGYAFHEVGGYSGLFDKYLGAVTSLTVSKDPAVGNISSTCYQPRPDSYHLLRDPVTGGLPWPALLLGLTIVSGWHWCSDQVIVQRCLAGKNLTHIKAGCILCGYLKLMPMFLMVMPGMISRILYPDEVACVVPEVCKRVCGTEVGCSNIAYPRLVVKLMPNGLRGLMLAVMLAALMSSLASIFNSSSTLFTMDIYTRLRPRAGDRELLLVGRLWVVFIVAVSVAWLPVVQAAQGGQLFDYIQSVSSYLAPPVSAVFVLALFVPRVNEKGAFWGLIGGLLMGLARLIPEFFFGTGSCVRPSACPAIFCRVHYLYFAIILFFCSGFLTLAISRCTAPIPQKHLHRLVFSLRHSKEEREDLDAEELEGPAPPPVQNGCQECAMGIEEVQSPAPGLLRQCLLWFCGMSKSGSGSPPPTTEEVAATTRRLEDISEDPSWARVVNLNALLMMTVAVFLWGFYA
# Description: (§1) Selective inhibition study. Inhibition constants (Ki) of mizagliflozin for rat and human SGLT1 and SGLT2 were determined measuring concentration-dependent effects of test compound on uptake of radiolabeled methyl-α-D-glucopyranoside (α-MG) into COS-7 cells transiently transfected with cloned SGLT1 or SGLT2. Mizagliflozin was assessed at concentrations from 1 to 30 μM and 3 to 100 μM for human and rat SGLT2, respectively. It was assessed at concentrations from 30 nM to 1 μM and 10 to 30 nM for human and rat SGLT1, respectively. α-MG test concentrations were 0.3 and 1 mM. Data were analyzed and Ki determined using Dixon plots of initial transport rates. […] Inhibition constants were also determined for human SGLT1 and SGLT2.
# human SGLT1 = target: T2, human SGLT1 (Homo sapiens, UniProt P13866); assay: Inhibition of radiolabeled α-MG uptake into COS-7 cells transfected with human SGLT1 (Dixon plot); assay type: cell-based
# T2 construct: expressed in transfected cells; host or cells: COS-7
# T2 sequence (P13866 1-664): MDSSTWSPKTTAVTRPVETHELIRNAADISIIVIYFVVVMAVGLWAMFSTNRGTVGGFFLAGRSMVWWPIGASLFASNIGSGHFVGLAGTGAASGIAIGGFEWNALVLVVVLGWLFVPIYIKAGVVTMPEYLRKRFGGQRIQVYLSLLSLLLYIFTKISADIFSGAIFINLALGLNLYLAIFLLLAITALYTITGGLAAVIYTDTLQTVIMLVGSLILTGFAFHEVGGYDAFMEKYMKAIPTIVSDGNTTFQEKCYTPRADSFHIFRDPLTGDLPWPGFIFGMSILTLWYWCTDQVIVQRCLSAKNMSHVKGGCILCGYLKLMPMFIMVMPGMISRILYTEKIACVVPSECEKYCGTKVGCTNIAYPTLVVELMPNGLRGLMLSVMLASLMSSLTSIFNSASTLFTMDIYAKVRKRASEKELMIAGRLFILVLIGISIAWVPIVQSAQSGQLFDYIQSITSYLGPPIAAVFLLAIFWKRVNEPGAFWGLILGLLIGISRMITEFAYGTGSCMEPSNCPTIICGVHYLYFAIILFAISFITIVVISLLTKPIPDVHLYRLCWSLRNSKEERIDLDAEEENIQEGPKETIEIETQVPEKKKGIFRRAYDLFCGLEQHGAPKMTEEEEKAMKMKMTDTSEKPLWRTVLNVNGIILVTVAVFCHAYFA
# Description: as §1
# [3] = Excretion after oral dosing in non-human primates; assay type: in vivo
# Source text: Accordingly, the SGLT1 inhibitor compounds of Formula I or Formula II are locally acting in the gut, and have poor systemic exposure. […] Systemic exposure (e.g., Cmax) can be measured by methods well known in the art, including liquid chromatography mass spectrometry.
structure (smiles),measurement,setting,value
"Cc1cc(OCCCNCC(C)(C)C(N)=O)ccc1Cc1c(O[C@@H]2O[C@H](CO)[C@@H](O)[C@H](O)[C@H]2O)n[nH]c1C(C)C [mizagliflozin, 3-(3-{4-[3-(β-D-glucopyranosyloxy)-5-isopropyl-1H-pyrazol-4-ylmethyl-]-3-methylphenoxy}propylamino)-2,2-dimethylpropionamide]",Plasma glucose 0 hr,[1]; 0.03 mg/kg oral,120 ± 9 mg/dL
same,Plasma glucose 0.5 hr,[1]; 0.03 mg/kg oral,289 ± 43 mg/dL
same,Plasma glucose 1 hr,[1]; 0.03 mg/kg oral,245 ± 28 mg/dL
same,Plasma glucose 2 hr,[1]; 0.03 mg/kg oral,129 ± 4 mg/dL
same,Plasma glucose 3 hr,[1]; 0.03 mg/kg oral,106 ± 4 mg/dL
same,ΔAUC (0-1),[1]; 0.03 mg/kg oral,116 ± 25 mg·h/dL
same,ΔAUC (0-1) (% of Control),[1]; 0.03 mg/kg oral,71 ± 15 % of Control
same,Plasma glucose 0 hr,[1]; 0.1 mg/kg oral,128 ± 13 mg/dL
same,Plasma glucose 0.5 hr,[1]; 0.1 mg/kg oral,261 ± 44 mg/dL
same,Plasma glucose 1 hr,[1]; 0.1 mg/kg oral,234 ± 37 mg/dL
same,Plasma glucose 2 hr,[1]; 0.1 mg/kg oral,136 ± 16 mg/dL
same,Plasma glucose 3 hr,[1]; 0.1 mg/kg oral,98 ± 8 mg/dL
same,ΔAUC (0-1),[1]; 0.1 mg/kg oral,93 ± 20 mg·h/dL
same,ΔAUC (0-1) (% of Control),[1]; 0.1 mg/kg oral,57 ± 12 % of Control
same,PG elevation after glucose administration,"[1]; 0.03 and 0.1 mg/kg oral, OMCTT",inhibited PG elevation after glucose administration dose dependently
same,ED50,"[2]; Rattus norvegicus, read-out: ED50 calculated from mean ΔAUC0-1 h (% of control), mixed carbohydrate 2.0 g/kg, single oral dose",0.096 mg/kg
same,ΔAUC0-1 h of plasma glucose versus vehicle control,[2]; mixed carbohydrate 2.0 g/kg,significantly lowered
same,Ki,rat SGLT2,14 µM
same,mode of inhibition of SGLT1 (Dixon plot intersection pattern),human SGLT1; human SGLT1,competitive with substrate
same,Ki,"human SGLT1; α-MG 0.3 and 1 mM, COS-7 cells, read-out: inhibition constant for human SGLT1",0.027 µM
same,excreted in the feces,[3],> 82 % of orally administered dose
